Format in all cases: biochemical
Assay [1] deals with T1, PM20D1-flag (Mus musculus, UniProt Q8C165).
T1 construct: flag-tagged, secreted, conditioned medium of transfected HEK293T cells
T1 sequence (Q8C165 25-503): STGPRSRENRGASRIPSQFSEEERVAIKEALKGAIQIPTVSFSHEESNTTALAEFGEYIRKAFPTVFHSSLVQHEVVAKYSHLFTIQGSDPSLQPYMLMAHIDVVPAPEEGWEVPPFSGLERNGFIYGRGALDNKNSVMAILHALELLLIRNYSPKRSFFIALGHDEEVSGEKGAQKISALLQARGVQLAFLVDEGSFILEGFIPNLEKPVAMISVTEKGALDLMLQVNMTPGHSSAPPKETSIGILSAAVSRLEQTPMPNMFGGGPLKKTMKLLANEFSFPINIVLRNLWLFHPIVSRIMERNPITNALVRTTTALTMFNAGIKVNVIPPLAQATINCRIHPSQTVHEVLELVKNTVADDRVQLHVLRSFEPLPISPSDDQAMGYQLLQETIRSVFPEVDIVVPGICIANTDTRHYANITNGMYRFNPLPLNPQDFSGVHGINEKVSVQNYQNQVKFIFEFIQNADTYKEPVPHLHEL
Description: hydrolysis, LC-MS. The conditions noted are these: 100 µM substrate, 100 µg conditioned medium protein, PBS, 1 hr 37°C.

The target in the next assay is T2, FAAH-flag (Mus musculus, UniProt O08914).
T2 construct: C-terminal flag tag, transient transfection in HEK293T, cell lysate
T2 sequence (O08914 1-579): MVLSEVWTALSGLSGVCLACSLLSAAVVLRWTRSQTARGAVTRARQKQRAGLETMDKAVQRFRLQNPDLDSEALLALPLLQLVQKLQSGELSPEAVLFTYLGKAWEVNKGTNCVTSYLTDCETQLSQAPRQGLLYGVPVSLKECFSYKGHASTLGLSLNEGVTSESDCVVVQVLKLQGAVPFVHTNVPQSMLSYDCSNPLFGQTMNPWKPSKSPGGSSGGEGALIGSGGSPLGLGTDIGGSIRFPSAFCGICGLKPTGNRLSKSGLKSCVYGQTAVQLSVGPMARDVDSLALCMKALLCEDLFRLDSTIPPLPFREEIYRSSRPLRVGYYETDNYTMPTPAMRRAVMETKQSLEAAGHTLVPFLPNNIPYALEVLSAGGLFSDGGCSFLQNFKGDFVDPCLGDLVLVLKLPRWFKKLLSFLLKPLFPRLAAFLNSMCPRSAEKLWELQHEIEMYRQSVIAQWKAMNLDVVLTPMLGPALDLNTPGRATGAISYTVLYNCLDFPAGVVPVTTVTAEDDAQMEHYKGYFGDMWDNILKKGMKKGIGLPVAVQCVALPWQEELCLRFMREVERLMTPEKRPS
Nature of the assay: hydrolysis, LC-MS. The settings on record: 100 µM substrate, 100 µg lysate protein, PBS, 1 hr 37°C.

Assay [2] concerns the target T1, PM20D1-flag. Nature of the assay: condensation with amino acid (synthase direction), LC-MS. The conditions noted are these: co-substrates Gly, Ser or Phe; PBS, 1 hr 37°C.

Regarding `CCCCC/C=C\C/C=C\C/C=C\C/C=C\CCCC(=O)NCC(=O)O` [C20:4-Gly], the “hydrolysis, LC-MS” value at PM20D1-flag [1] was “PM20D1 exhibited robust hydrolysis activity only on C20:4-Gly”.
Turning to `CCCCC/C=C\C/C=C\C/C=C\C/C=C\CCCC(=O)N[C@@H](CO)C(=O)O` [C20:4-Ser], the “hydrolysis, LC-MS” value on FAAH-flag is reported as “A strong preference was observed for C20:4-Ser over the other three N-acyl amino acid substrates”.
The same measure, in the same setting: the value for `CCCCC/C=C\C/C=C\C/C=C\C/C=C\CCCC(=O)NCCO` [anandamide] was “FAAH showed robust hydrolysis activity with anandamide as a substrate”.
As to `CCCCC/C=C\C/C=C\C/C=C\C/C=C\CCCC(=O)O` [arachidonic acid], the “condensation with amino acid (synthase direction), LC-MS” value on PM20D1-flag [2] is given as “PM20D1 also efficiently catalyzed the condensation of arachidonic acid with all three”.

Source of the values: PMC7145423, “Cooperative enzymatic control of N-acyl amino acids by PM20D1 and FAAH” (eLife, 2020).
